Test results as given in patent publication US20080167248A1, “Anti-Aging Effects Of Substance P” (IMMUNEREGEN BIOSCIENCES, INC., priority 2004, published 2008).

Legend:
Assay type in all cases: in vivo
human [1] = test: running speed (150M build-ups, timed 200M run)
Text: After taking the analog, I “felt” much faster in my 150M build-ups than previously.

human [2] = test: sleep pattern
Description: I have 6 hours sleep on a regular basis. Approximately a week ago, after taking the analog daily for 2 weeks, I was getting 5 hours sleep.

scalp hair of a human = test: hair styling gel with the analog applied daily to the scalp, hair colour; conditions: 0.001 mg/ml in hair styling gel, approximately 2 ml daily to scalp, after a few months; self-observation
Description: [Sar9,Met (02)11 ]-substance P was formulated in a hair styling gel at a concentration of 0.001 mg/ml and approximately 2 ml were applied daily to my scalp. […] I estimate my head of hair to be about 40% darker. This observation is consistent with results observed on radiation-exposed mice that had been given the substance P analog.

radiation-exposed mice = test: hair regrowth in radiation-exposed mice given the substance P analog
human [3] = test: residual muscle pain after a very hard workout
Text: I ran five miles with four 150M build-ups and threw a 6 Kg shot-put for the first time. This workout was followed by a session of weightlifting. Before I began treatment with the substance P analog I would take Advil™ at least twice on the day of the work out to prevent muscle pain.

human [4] = test: short-term memory; conditions: since beginning to apply the analog; names and telephone numbers
Text: I can remember people's names and telephone numbers more readily.

human [5] = test: visual accommodation (adjustment time between long and near vision)

[Sar9,Met (02)11 ]-substance P
perceived speed in 150M build-ups (human [1]; after taking the analog, versus previously): much faster | time in a 200M run (human [1]; timed run): significantly improved | quality of sleep, later (human [2]; about a week later (now)): the vivid dreams and less waking up continue | hours of sleep per night, later (human [2]; about a week later (now), reverted): six | quality of sleep (human [2]; after taking the analog daily for 2 weeks): deeper with more vivid dreams and less “waking up.” | hours of sleep (human [2]; after taking the analog daily for 2 weeks, regular basis 6 hours): 5 h | head of hair darker (estimate) (scalp hair of a human): about 40% | overall color of hair (scalp hair of a human): becoming more like my original brown color | regrowth of hair lost upon radiation exposure (radiation-exposed mice; radiation-exposed mice given the substance P analog): regrew hair that was lost upon radiation exposure | colour of new hair growth (radiation-exposed mice; radiation-exposed mice, versus non-exposed area): darker than in the non-exposed area | reduction in residual muscle pain (human [3]; after a very hard workout, self-observation): very large reduction | tightness or soreness in right arm/shoulder from throwing the shot (human [3]; after taking the analog): nor did I experience tightness or soreness | muscle pain after the hard workout (human [3]; five mile run, four 150M build-ups, 6 Kg shot-put, weightlifting, after taking the analog): no muscle pain | memory problems (human [4]): less “middle-aged” memory problems | adjustment time between long and near vision after 97 days (human [5]; after 97 days of administration): little adjustment time | adjustment time between long and near vision (human [5]; during administration): shorter and continues to diminish
